Among the data in PubChem BioAssay AID504778 (National Center for Advancing Translational Sciences (NCATS), 2011) are Papp B->A values, retold here.

In this data set the test system is Caco-2 monolayer, B->A permeability, LC-MS/MS. As to the kind of experiment: Enhancers of SMN2 Splice Variant Expression: Caco-2 Permeability Profiling. The note with it: active compounds read high. An excerpt:
Spinal muscular atrophy (SMA) is caused by insufficient levels of the survival motor neuron protein SMN. The SMN locus on chromosome 5q13 contains two inverted copies of SMN called SMN1 and SMN2 which are 99% identical at the amino acid level. SMN1 is a fully functional protein and SMN2 skips exon 7 90% of the time. Skipping of exon 7 produces non-functional protein product. 10% of the SMN2 protein includes exon 7 and is fully functional. In the SMA disease state, mutations in the SMN1 locus are the cause of the disease state. Because only 10% of SMN2 is of the fully functional form, it is not sufficient to overcome the deficiency produced by the loss of the SMN1 product. A therapy that either increase the amount of SMN2 product made or to increase the inclusion of exon 7 has been proposed for the treatment of SMA. After screening and medicinal chemistry efforts a probe was identified and is further characterized in this in vitro ADME assay. This Caco-2 permeability assay predicts the in vivo absorption of the lead across the intestinal lining by using a Caco-2 cell line and measuring the lead's rate of transport […]. […] NIH Chemical Genomics Center [NCGC] NIH Molecular Libraries Probe Production centers Network [MLPCN] […]
1. […] The T0, LY and T90, LY plates are read by FlexStation 3 at excitation of 485 nm and emission of 535 nm to determine LY permeability. […]

Consider `O=C(O)C1CCN(c2nc(-c3ccc(Br)cc3)cs2)CC1`, for which the Papp B->A is 12 10^-6 cm/s.
